Several values for one entry are separate records, joined by “and”; a condition that tells them apart may be missing. Identical values can stand only once. Like-named read-outs stand apart in the source and are kept apart here.
Tests used:
FaDuDD tumors [1] = assay: BIWI 1 combination with cisplatin in nude mice xenografted with FaDuDD tumors; type: in vivo, mouse; settings: cisplatin 4 mg/kg i.v. q7dx4
Protocol: (§1) The antibody solution was injected into the tail vein with an injection volume of 200 μl for a 25 g mouse. In the control groups without BIWI 1 treatment animals were injected i.v. with PBS. […] The solution was injected into the tail vein with an injection volume of 200 μl for a 25 g mouse. […] The solution was injected into the tail vein with an injection volume of 200 μl for a 25 g mouse.
(§2) Tumor sizes and body weights were recorded 2-3 times per week. Tumor sizes were measured with a calliper (length and width) and the volume was calculated according to the following formula: volume (length)×(width)^2×([…]). The tolerability of the treatment was monitored by measuring mouse weight during the whole observation period. […] For calculation of the mean tumor volumes per group, the last values of tumor size for individual animals were carried forward in case that these animals had to be sacrificed due to large tumor burden before the whole group was terminated. In addition to the absolute tumor volume in mm^3, the relative tumor volumes (RTV) were calculated as follows:
(§3) RTV=(tumor volume at day x)/(tumor volume at start of treatment)×100 For the evaluation of treatment efficacy the following parameters were calculated: • T/C (%)=(mean RTV of treated group)/(mean RTV of control group)×100 • T4T (tumor quadrupling time)=time until the mean RTV reaches 400% • GDF4 (growth delay factor)=T4T treated/T4T control.
(§4) In addition, for some experiments, the mean time for tumors to reach 8 times (T8T) their initial sizes were also calculated. The growth delay factor (GDF8) was then calculated accordingly. Percentages of mean relative tumor volumes of treated versus control groups (T/C) were calculated on the days indicated. For statistical evaluation of combination therapies exact Wilcoxon tests were used. Tolerability was assessed by monitoring body weight changes.
A different set of experiments was done with cisplatin. In a pilot experiment, a dose of 4 mg/kg cisplatin administered i.v. four times in weekly intervals was determined to be non-curative in this model, and also represents the maximum tolerated dose in the mouse strain used. This dose of cisplatin was combined with BIWI 1 at the non-curative doses of 200 μg/kg DM1 and 300 Ag/kg DM1 already used in the previous experiment. […] In the latter combination group 2/8 complete tumor regressions could be observed. […] Treatment was well tolerated in all groups.

[2] = Tolerability in FaDu combination experiments (body weight); type: in vivo, mouse
Protocol: as §2, with “follows: […]” for “follows:”
as §4

cells = settings: free DM1, literature background; cited from earlier work
FaDuDD tumors [3] = assay: BIWI 1 combination with docetaxel in nude mice xenografted with FaDuDD tumors; type: in vivo, mouse; settings: docetaxel 3 mg/kg i.v. q7dx4
Protocol: as §1, §2, §3, §4
To assess the efficacy of BIWI 1 in combination with the taxane docetaxel (Taxotere), non-curative doses of both drugs were tested as single agents or in combination in nude mice xenografted with FADuDD tumors. In pilot experiments a dose of 3 mg/kg docetaxel (q7dx4) was determined to be non-curative in this model. BIWI 1 was used at the non-curative dose of 200 μg/kg DM 1 and at a somewhat higher dose (300 μg/kg DM1).
The effect was somewhat more pronounced in the two BIWI 1 monotherapy treatment groups with T/C 41-30% and GDF4: 2.8-4.4. Complete tumor regression could be observed in 1/8 cases with the higher BIWI 1 dose. […] Treatment was well tolerated in all groups, except for a slight unexplained weight loss (approx. −5%) in the docetaxel monotherapy group.

MDA-MB-453 tumors [4] = system: MDA-MB-453 tumors
Protocol: Experiments were performed using nude mice xenografted subcutaneously with the human breast carcinoma cell line MDA-MBA53. […] The efficacy of these combinations was compared to those of the respective monotherapies by i) analysing the tumor volumes over time and ii) by determining the time for tumors to reach a certain size (tumor growth delay).
The dilutions were prepared freshly for each application or stored at +4° C. during the whole treatment period. […] 200 μl of solutions with different concentrations were injected into the tail vein. Docetaxel (Taxotere®, Aventis, 10 mg/ml) was diluted in 0.9% NaCl. 200 μl of solutions with different concentrations were injected into the tail vein.
Briefly, 1×10^7 MDA-MB-453 cells (ATCC No. HTB-131) were injected into the mammary fat pad of female NMRI nu/nu mice. After reaching a volume of approximately 1000 mm^3 tumors were excised, cut into 4×4 mm pieces and passaged further subcutaneously. Tumor fragments were cryoconserved in 90% RPMI 1640/10% dimethylsulfoxide (slow freezing process down to −80° C., storage in liquid nitrogen). For further passaging, frozen tumor fragments were thawed, washed 3 times in PBS and implanted subcutaneously into the right and left flanks of a 4-5 female NMRI nu/nu mice. Tumors of these mice were then used to prepare the animals for a therapy experiment. Tumors were excised with a size of approximately 10 mm in diameter, cut into 2×2 mm pieces and implanted subcutaneously into the right flank of 6-8 week old female NMRI nu/nu mice. Approximately twice as many animals as needed for the experiment were prepared. When tumors reached a size of 5-10 mm in diameter (10-14 days after implantation), animals were randomised and treatments were started. Animals were obtained from Harlan (Germany) or M&B (Denmark). Tumor sizes and body weights were recorded as described in Section 2.7.

MDA-MB-453 tumors [5] = assay: BIWI 1 combination with doxorubicin in nude mice xenografted with MDA-MB-453 tumors; type: in vivo, mouse; settings: doxorubicin 6 mg/kg i.v. q7dx4
Protocol: Similar experiments as outlined under Section 2.6 were undertaken in a human breast carcinoma xenograft model. Experiments were performed using nude mice xenografted subcutaneously with the human breast carcinoma cell line MDA-MBA53. […] The efficacy of these combinations was compared to those of the respective monotherapies by i) analysing the tumor volumes over time and ii) by determining the time for tumors to reach a certain size (tumor growth delay).
The dilutions were prepared freshly for each application or stored at +4° C. during the whole treatment period. […] Doxorubicin (Doxorubicin “Ebewe”®, 2 mg/ml) was diluted in PBS. 200 μl of solutions with different concentrations were injected into the tail vein. Docetaxel (Taxotere®, Aventis, 10 mg/ml) was diluted in 0.9% NaCl. 200 μl of solutions with different concentrations were injected into the tail vein.
The xenograft model was handled slightly different as outlined under Section 2.1. Briefly, 1×10^7 MDA-MB-453 cells (ATCC No. HTB-131) were injected into the mammary fat pad of female NMRI nu/nu mice. After reaching a volume of approximately 1000 mm^3 tumors were excised, cut into 4×4 mm pieces and passaged further subcutaneously. Tumor fragments were cryoconserved in 90% RPMI 1640/10% dimethylsulfoxide (slow freezing process down to −80° C., storage in liquid nitrogen). For further passaging, frozen tumor fragments were thawed, washed 3 times in PBS and implanted subcutaneously into the right and left flanks of a 4-5 female NMRI nu/nu mice. Tumors of these mice were then used to prepare the animals for a therapy experiment. Tumors were excised with a size of approximately 10 mm in diameter, cut into 2×2 mm pieces and implanted subcutaneously into the right flank of 6-8 week old female NMRI nu/nu mice. Approximately twice as many animals as needed for the experiment were prepared. When tumors reached a size of 5-10 mm in diameter (10-14 days after implantation), animals were randomised and treatments were started. Animals were obtained from Harlan (Germany) or M&B (Denmark). Tumor sizes and body weights were recorded as described in Section 2.7.

[6] = Tolerability in MDA-MB-453 combination experiments (body weight); type: in vivo, mouse; settings: doxorubicin 6 mg/kg monotherapy group; combination group with BIWI 1 75 μg/kg DM1; 6 animals per group
Protocol: as §2, with “follows: […]” for “follows:”
as §4

FaDu tumors [7] = assay: BIWI 1 combination therapy with paclitaxel in the FaDu xenograft model; type: in vivo, mouse; settings: or both
Protocol: (§5) In vivo anti-tumor efficacy of BIWI 1 was tested in three nude mouse xenograft models applying antigen-positive human tumors: A431 (ATCC # CRL 1555; epidermoid carcinoma of the vulva), FaDu (ATCC # HTB 43; squamous cell carcinoma of the pharynx), and MDA-MB 453 (ATCC # HTB-131; breast carcinoma). The cells were received from ATCC and cultured in RPMI1640 medium containing 10% fetal calf serum and supplements. 1×10^6 tumors cells were transplanted subcutaneously into the right flank of 6 week old female NMRI-nu/nu mice. Tumor growth was monitored by measuring tumor size. A tumor response was rated as complete response when the tumor completely disappeared at any time after start of treatment. The response was rated as partial response when the tumor volume decreased after treatment but thereafter started regrowing. The tolerability of the treatment was monitored by measuring mouse weight during the observation period.
Mice were randomised into the following treatment groups (treatment/initial mean tumor volume/tumor volume range/number of mice): • Group 1: Control (PBS)/197 mm^3/65-402 mm^3/8 mice • Group 2: Paclitaxel/182 mm^3 /65%-302 mm^3/8 mice • Group 3: BIWI 1/208 mm^3 /65-382 mm^3/8 mice • Group 4: BIWI 1+paclitaxel/159 mm^3 /79-335 mm^3 /7 mice
Treatment consisted either of five i.v. injections of BIWI 1 (7 mg/kg corresponding to 100 μg/kg DM1) at day 1, 3, 5, 8, 10, or of six i.p. injections of paclitaxel (10 mg/kg) at day 2, 4, 6, 9, 11, 13, respectively, or a combination thereof. Control animals were treated with PBS.
One tumor completely dissappeared during treatment and the animal remained tumor free until the end of the observation period.

[8] = system: breast carcinoma xenografts; assay: BIWI 1 (five daily doses) combination with paclitaxel in human breast carcinoma xenograft model; type: in vivo, mouse
Protocol: BIWI was given i.v. into the tail vein at doses of 50 μg DM1/kg/day or 100 μg DM1/kg/day for five consecutive days. Paclitaxel (Taxol®) was given i.v. at 20 or 10 mg/kg, doxorubicin (Adriamycin®) at 6 or 4 mg/kg only on the first day of the treatment period, in each case 4 hours after BIWI 1 treatment. In mice bearing breast carcinoma xenografts with a volume of approximately 100 mm3.

[9] = system: antigen-positive FaDu cells; assay: In vitro binding to FaDu cells (FACS); settings: 1 hour on ice, FITC-labeled anti-human IgG, read-out: apparent KD
Protocol: The binding of BIWA 4 antibody and BIWI 1 conjugate to antigen-positive FaDu cells was determined. Cells ([…]) were incubated in 96-well plates with varying concentrations of antibody or conjugate on ice for 1 hour. The test article was washed from the plate and FITC-labeled anti-human IgG was added and the incubation on ice was continued in the dark for 1 hour. After washing, the cells were fixed with 1% paraformaldehyde and analyzed on a fluorescence activated cell sorter (FACS).

A431 tumors = assay: BIWI 1 monotherapy in A431 xenografted nude mice; type: in vivo, mouse; settings: 21 mg/kg/d control antibody i.v., five consecutive days
Protocol: as §5
Mice were randomised into the following treatment groups (treatment/initial mean tumor volume/tumor volume range/number of mice): • Group 1: Control (PBS)/185±217 mm^3/19-424 mm^3/5 mice. • Group 2: BIWA 4 (21 mg/kg/d)/133±115 mm^3/42-302 mm^3/5 mice. • Group 3: BIWI 1 (2.1 mg/kg/d)/107±63 mm^3/42-205 mm^3′/5 mice. • Group 4: BIWI 1 (7 mg/kg/d)/132±73 mm^3/42-205 mm^3/5 mice. • Group 5: BIWI 1 (21 mg/kg/d)/107±[…]/42-205 mm^3/5 mice.
(§6) Groups of 5 mice were treated with 2.1 mg/kg/d BIWI 1, 7 mg/kg/d BIWI 1, 21 mg/kg/d BIWI 1, and 21 mg/kg/d control antibody, respectively. Treatment consisted of i.v. injections of BIWI 1 given on five consecutive days, starting at day 1.

FaDu tumors [10] = assay: BIWI 1 monotherapy in FaDu xenografted nude mice; type: in vivo, mouse; settings: 21 mg/kg/d control antibody i.v., five consecutive days
Protocol: as §5
Mice were randomised into the following treatment groups (treatment/initial mean tumor volume/tumor volume range/number of mice): • Group 1: Control (PBS)/142±82 mm^3/34-268 mm^3 /8 mice. • Group 2: BIWA 4 (21 mg/kg/d)/134±86 mm^3/42-268 mm^3/6 mice. • Group 3: BIWI 1 (2.1 mg/kg/d) 149±96 mm^3/50-268 mm^3/6 mice. • Group 4: BIWI 1 (7 mg/kg/d)/132±97 mm^3 42-268 mm^3/6 mice. • Group 5: BIWI 1 (21 mg/kg/d)/129±74 mm^3/50-231 mm^3/6 mice.
as §6, with “6” for “5”, “1. […] The remaining 2 tumors grew similar to untreated control tumors.” for “1.”

[11] = BIWI 1 7 mg/kg i.v. x5, paclitaxel 10 mg/kg i.p. x6

For N.N.[Cl][Pt][Cl] [Cisplatin, reference compound], the GDF4 (FaDuDD tumors [1]) was 1.1, the “T4T” value (FaDuDD tumors [1]) was 11.3 days and the “T/C (d 19)” value (FaDuDD tumors [1]) was 100%. For the same compound, the “maximum tolerated dose in the mouse strain used” value ([2]; cisplatin i.v. four times in weekly intervals, pilot experiment) was 4 mg/kg.

For COc1cc2cc(c1Cl)N(C)C(=O)C[C@H](OC(=O)[C@H](C)N(C)C(=O)CCS)[C@]1(C)O[C@H]1[C@H](C)[C@@H]1C[C@@](O)(NC(=O)O1)[C@H](OC)/C=C/C=C(\C)C2 [DM1, N^2′-deacetyl-N^2′-(3-mercapto-1-oxopropyl)-Maytansine], the “concentration toxic to cells in vitro” value (cells) is given as “about 10^−10 M”.

For CC(=O)O[C@@]12CO[C@@H]1C[C@H](O)[C@@]1(C)C(=O)[C@H](O)C3=C(C)[C@@H](OC(=O)[C@H](O)[C@@H](NC(=O)OC(C)(C)C)c4ccccc4)C[C@@](O)([C@@H](OC(=O)c4ccccc4)[C@H]21)C3(C)C [Docetaxel], the GDF4 (FaDuDD tumors [3]) was 1.9, the “T4T” value (FaDuDD tumors [3]) was 13.5 days and the “T/C (d 16)” value (FaDuDD tumors [3]) was 56%. The weight loss ([2]; docetaxel monotherapy group 3 mg/kg q7dx4, FaDuDD xenografted mice) was “approx. −5%”, the GDF4 (MDA-MB-453 tumors [4]; docetaxel 3 mg/kg i.v. q7dx4) was 0.8 and the “T4T” value (MDA-MB-453 tumors [4]; docetaxel 3 mg/kg i.v. q7dx4) was 9.0 days. For the same compound, the “T/C (d 16)” value (MDA-MB-453 tumors [4]; docetaxel 3 mg/kg i.v. q7dx4) was 102%, the GDF4 (MDA-MB-453 tumors [4]; docetaxel 6 mg/kg i.v. q7dx4) was 1.3 and the “T4T” value (MDA-MB-453 tumors [4]; docetaxel 6 mg/kg i.v. q7dx4) was 14 days and 13.9 days. The “T/C (d 16)” value (MDA-MB-453 tumors [4]; docetaxel 6 mg/kg i.v. q7dx4) was 71%.

For COc1cccc2c1C(=O)c1c(O)c3c(c(O)c1C2=O)C[C@@](O)(C(=O)CO)C[C@@H]3O[C@H]1C[C@H](N)[C@H](O)[C@H](C)O1 [Doxorubicin, reference compound], the GDF4 (MDA-MB-453 tumors [5]) was 1.0, the “T/C (d13)” value (MDA-MB-453 tumors [5]) was 66% and the “animals with transient weight loss of more than 12%” value [6] was “two”.

For CC(=O)O[C@H]1C(=O)[C@@]2(C)[C@H]([C@H](OC(=O)c3ccccc3)[C@]3(O)C[C@H](OC(=O)[C@H](O)[C@@H](NC(=O)c4ccccc4)c4ccccc4)C(C)=C1C3(C)C)[C@]1(OC(C)=O)CO[C@@H]1C[C@@H]2O [Paclitaxel, reference compound], the “Initial Tumor Doubling Time” value (FaDu tumors [7]; BIWI 1 7 mg/kg i.v. day 1,3,5,8,10, paclitaxel 10 mg/kg i.p. day 2,4,6,9,11,13) was 7 days, the “Complete Regression” value (FaDu tumors [7]; [11]) was 0/8 and the “Growth Delay Factor” value (FaDu tumors [7]; [11]) was 0.75. The “T/C (median relative tumor volumes of treated versus control groups)” value ([8]; paclitaxel monotherapy 10 mg/kg i.v. on first day) was 50% and the “T/C (median relative tumor volumes of treated versus control groups)” value ([8]; paclitaxel monotherapy 20 mg/kg i.v. on first day) was 13%.

With BIWA 4 the Kd [9] was 1 nM, the anti-tumor effect (A431 tumors) was “no anti-tumor effect” and the “tumor volume doubling time” value (A431 tumors) was “approximately 5 days”. For the same compound, the anti-tumor effect (FaDu tumors [10]) was “no anti-tumor effect” and the “tumor volume doubling time” value (FaDu tumors [10]) was “approximately 5 days”.
